{"source": "paper PMC7069095", "about": "“A cell-permeable peptide-based PROTAC against the oncoprotein CREPT proficiently inhibits pancreatic cancer” (Theranostics, 2020)", "assay_type_in_all_cases": "cell-based", "key": {"[1]": {"test_system": "Panc-1 cells", "assay": "Flow cytometry, entry of FITC-labeled peptides into cells", "conditions": "conclusion from flow cytometry of FITC-labeled peptides in pancreatic cancer cells", "procedure": "(§1) To examine whether PRTC could permeate into pancreatic cancer cells, we synthesized fluorescein isothiocyanate (FITC) labeled PRTC, PRTC-m, PRTC-v, PRTC-r (PRTC without RRRRK) as well as TAT (a widely used cell penetrating peptide, as a positive control).\n(§2) Figure 3 Identification of the permeability of PRTC in Panc-1 cells. (A) Entry of FITC- labeled peptides into Panc-1 cells tested by flow cytometry. FITC-TAT is the positive control. Measurements were performed in triplicate. (B) Quantification of cellular uptake of Panc-1 cells treated with different concentrations of FITC-PRTC. (C) Confocal microscope images of Panc-1 cells treated with 10 μM FITC labeled peptides. Scale bars, 10 μm. (D) Confocal microscope images of Panc-1 cells treated with different dosages of FITC-PRTC. Scale bars, 10 μm."}, "[2]": {"test_system": "Panc-1 cells", "assay": "Confocal fluorescence imaging of FITC labeled peptides in cells", "conditions": "flow cytometry and confocal imaging of FITC-labeled PRTC; Panc-1, AsPc-1, MIA PaCa-2 cells", "procedure": "as §1, §2"}, "[3]": {"test_system": "HPDE6-C7 cells", "assay": "Cell proliferation assay", "conditions": "little CREPT expression", "procedure": "Cells were seeded into 96-well plates (1000 cells per well) and cultured for the indicated times. Cell viability was evaluated using a CCK-8 kit (Solarbio, Beijing, China). The value of OD450 was calculated by spectrophotometer and presented as the mean ± standard deviation (SD) from three individual experiments. […]\n(H) Cell proliferation assay of\nHPDE6-C7 cells. […] HPDE6-C7\nis anormal pancreatic epithelial cell line.\n(1 picture or pasted object on this page, not shown here)"}}, "note": "Entries after “also recorded” stand apart in the source; their conditions may differ. Non-standard residues stand in square brackets, D forms with d. Residues, ends and D or L forms follow the SMILES beside them. Hyp = O=C(O)[C@@H]1C[C@@H](O)CN1; Ahx = NCCCCCC(=O)O", "data": [{"smiles": "CC[C@H](C)[C@H](N)C(=O)N[C@@H](Cc1ccc(O)cc1)C(=O)N1C[C@H](O)C[C@H]1C(=O)N[C@@H](C)C(=O)N[C@@H](CC(C)C)C(=O)NCCCCCC(=O)N[C@@H](CCCCN)C(=O)N[C@@H](CC(=O)O)C(=O)N[C@H](C(=O)N[C@@H](CC(C)C)C(=O)N[C@@H](CO)C(=O)N[C@@H](CCC(=O)O)C(=O)N[C@@H](CCCCN)C(=O)N[C@@H](CCC(=O)O)C(=O)N[C@@H](CCCCN)C(=O)N[C@@H](CCCCN)C(=O)N[C@@H](CC(C)C)C(=O)N[C@@H](CCC(=O)O)C(=O)N[C@@H](CCC(=O)O)C(=O)N[C@@H](Cc1ccc(O)cc1)C(=O)N[C@@H](CCCCN)C(=O)N[C@@H](CCC(N)=O)C(=O)N[C@@H](CCCCN)C(=O)N[C@@H](CC(C)C)C(=O)N[C@@H](C)C(=O)N[C@@H](CCCNC(=N)N)C(=O)N[C@H](C(=O)N[C@@H](CCCNC(=N)N)C(=O)N[C@@H](CCCNC(=N)N)C(=O)N[C@@H](CCCNC(=N)N)C(=O)N[C@@H](CCCNC(=N)N)C(=O)N[C@@H](CCCCN)C(=O)O)C(C)C)C(C)C", "note": "[PRTC] (H-IY[Hyp]AL[Ahx]KDVLSEKEKKLEEYKQKLARVRRRRK-OH; N-terminus and C-terminus assumed)", "values": [{"measurement": "cell permeability", "setting": "[1]", "result": "strong cell permeability"}, {"measurement": "time to permeate into pancreatic cancer cells", "setting": "[2]", "result": "≤ 2", "unit": "h"}, {"measurement": "cell proliferation of a normal pancreatic epithelial cell line", "setting": "[3]", "result": "failed to influence; also recorded: failed to inhibit"}]}]}
